Measurements: ChEMBL document CHEMBL5726224, “Aminoester derivatives” (2017)

What follows are molecules tested against Muscarinic acetylcholine receptor M3 (Homo sapiens, UniProt P20309) (assay: The assay is carried out in 96-well polypropylene plates in a volume of 250 μl. […] The final assay concentration of DMSO is 0.5% (v/v). The plates are sealed and incubated for 2 h at room temperature on an orbital shaker (slow speed). Membranes are harvested onto 96-well unifilter GF/C filter plates pre-treated with 0.5% polyethyleneimine (v/v), using a filter manifold, washed four times with 200 μl of assay buffer. The plates are dried before addition of 50 μl of microscint-0, sealed then read in a Trilux Microbeta scintillation counter. IC50 values are determined from competition curves using a non-linear curve fitting program. Ki values are calculated from IC50 values by the Cheng and Prusoff equation.).
Chain of Muscarinic acetylcholine receptor M3 (P20309 whole entry): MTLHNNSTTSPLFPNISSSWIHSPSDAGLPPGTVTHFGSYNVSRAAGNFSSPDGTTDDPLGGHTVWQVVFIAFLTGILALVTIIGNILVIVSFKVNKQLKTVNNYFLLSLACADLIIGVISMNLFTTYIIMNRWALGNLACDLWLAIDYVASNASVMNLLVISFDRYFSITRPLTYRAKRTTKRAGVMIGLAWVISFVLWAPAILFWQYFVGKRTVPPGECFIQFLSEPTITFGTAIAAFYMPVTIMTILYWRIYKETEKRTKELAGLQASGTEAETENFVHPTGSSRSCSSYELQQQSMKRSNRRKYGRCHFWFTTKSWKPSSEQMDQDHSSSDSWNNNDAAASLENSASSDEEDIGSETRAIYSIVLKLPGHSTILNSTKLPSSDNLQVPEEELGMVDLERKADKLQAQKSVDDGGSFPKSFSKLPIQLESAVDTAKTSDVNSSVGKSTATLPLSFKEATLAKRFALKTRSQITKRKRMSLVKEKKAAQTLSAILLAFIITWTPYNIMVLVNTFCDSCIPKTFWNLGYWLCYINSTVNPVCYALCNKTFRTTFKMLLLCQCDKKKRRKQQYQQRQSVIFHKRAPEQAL

Row | Ki [nM] | Compound | IC50 [nM]
1 | – | COc1ccc([C@H](Cc2c(Cl)c[n+]([O-])cc2Cl)OC(=O)c2ccc(CNC(CO)(C(=O)OC[C@H]3CCN(C)C3)c3ccccc3)s2)cc1OC (stereo partly specified) | < 1
2 | – | COc1ccc([C@H](Cc2c(Cl)c[n+]([O-])cc2Cl)OC(=O)c2ccc(CNC(CO)(C(=O)OC[C@@H]3CCN(C)C3)c3ccccc3)s2)cc1OC (stereo partly specified) | < 1
3 | 0.59 | COc1ccc([C@H](Cc2c(Cl)c[n+]([O-])cc2Cl)OC(=O)c2ccc(CNC(C(=O)OC[C@H]3CCN(C)C3)c3ccccc3)s2)cc1OC (stereo partly specified) | –

These molecules were tested against 3',5'-cyclic-AMP phosphodiesterase 4B (Homo sapiens, UniProt Q07343) (assay: HTRF Assay: PDE4B2 activity is detected using the LANCE Ultra cAMP homogeneous time resolved fluorescence resonance energy transfer (TR-FRET) assay from Perkin Elmer. The assay is based on the competition between the europium (Eu) chelate-labeled cAMP tracer and sample cAMP for binding sites on cAMP-specific monoclonal antibodies (mAb) labelled with the ULight¿ dye. The assay is carried out in 384-well low volume plates in a volume of 10 μl. Human recombinant PDE4B2 (80 pM) is incubated for 2 h with 3 nM cAMP in buffer containing 1×HBSS, 5 mM HEPES, 3 mM MgCl2, 0.1% BSA, pH 7.4 with or without test compounds. The enzymatic reactions are efficiently stopped by the addition of 500 μM IBMX present in the combined Stop/Detection buffer containing europium (Eu) chelate-labeled cAMP tracer and cAMP-specific monoclonal antibodies (mAb) labelled with the ULight¿ dye. […] IC50 values are determined from competition curves using a non-linear curve fitting program.).
Chain of 3',5'-cyclic-AMP phosphodiesterase 4B (Q07343 whole entry): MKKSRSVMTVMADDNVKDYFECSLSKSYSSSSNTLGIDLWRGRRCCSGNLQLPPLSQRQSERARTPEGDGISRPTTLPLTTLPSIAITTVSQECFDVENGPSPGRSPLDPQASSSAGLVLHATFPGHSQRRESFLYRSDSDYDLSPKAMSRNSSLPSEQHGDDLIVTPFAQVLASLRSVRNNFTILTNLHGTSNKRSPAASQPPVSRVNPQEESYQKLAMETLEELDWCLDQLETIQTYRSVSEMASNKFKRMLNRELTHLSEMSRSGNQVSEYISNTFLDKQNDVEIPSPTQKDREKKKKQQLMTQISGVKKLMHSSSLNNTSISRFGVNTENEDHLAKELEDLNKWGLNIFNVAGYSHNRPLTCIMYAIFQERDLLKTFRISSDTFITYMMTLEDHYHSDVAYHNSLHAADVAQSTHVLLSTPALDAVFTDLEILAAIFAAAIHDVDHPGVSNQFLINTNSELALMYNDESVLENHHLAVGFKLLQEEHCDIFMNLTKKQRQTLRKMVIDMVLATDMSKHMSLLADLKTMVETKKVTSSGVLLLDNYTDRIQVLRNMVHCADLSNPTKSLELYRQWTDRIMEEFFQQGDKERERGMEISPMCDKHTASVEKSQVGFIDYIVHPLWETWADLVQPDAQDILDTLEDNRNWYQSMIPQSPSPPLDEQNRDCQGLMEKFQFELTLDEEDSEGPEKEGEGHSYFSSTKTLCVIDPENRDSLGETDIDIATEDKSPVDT

Row | Compound | IC50 [nM]
4 | COc1ccc([C@H](Cc2c(Cl)c[n+]([O-])cc2Cl)OC(=O)c2ccc(CNC(C(=O)OCC3CCN(C)CC3)c3cccc(O)c3)s2)cc1OC (stereo partly specified) | < 1
5 | COc1ccc([C@H](Cc2c(Cl)c[n+]([O-])cc2Cl)OC(=O)c2ccc(CNC(C)(C(=O)OCC3CCN(C)CC3)c3ccccc3)s2)cc1OC (stereo partly specified) | < 1
6 | COc1ccc(C(Cc2c(Cl)c[n+]([O-])cc2Cl)OC(=O)c2ccc(CNC(C(=O)OCC3CCN(C)CC3)c3ccccc3)s2)cc1OCC1CC1 (stereo unspecified) | < 1
7 | COc1ccc([C@H](Cc2c(Cl)c[n+]([O-])cc2Cl)OC(=O)c2ccc(CNC(C(=O)OCC3CCN(C)CC3)c3ccccc3F)s2)cc1OC (stereo partly specified) | < 1
8 | COc1ccc([C@H](Cc2c(Cl)c[n+]([O-])cc2Cl)OC(=O)c2ccc(CNC(C(=O)OC[C@H]3CCCN(C)C3)c3ccccc3)s2)cc1OC (stereo partly specified) | < 1
9 | COc1ccc([C@H](Cc2c(Cl)c[n+]([O-])cc2Cl)OC(=O)c2ccc(CNC(CO)(C(=O)OC[C@H]3CCN(C)C3)c3ccccc3)s2)cc1OC (stereo partly specified) | < 1

Second part, the molecule after the results:

Row | IC50 [nM] | Compound
10 | < 1 | CCOc1cc(C(Cc2c(Cl)c[n+]([O-])cc2Cl)OC(=O)c2ccc(CNC(C(=O)OCC3CCN(C)CC3)c3ccccc3)s2)ccc1OC (stereo unspecified)
11 | < 1 | COc1ccc([C@H](Cc2c(Cl)c[n+]([O-])cc2Cl)OC(=O)c2ccc(CNC(C(=O)OC[C@H]3CCCCN3C)c3ccccc3)s2)cc1OC (stereo partly specified)
